# Test results: US11149135B2, “Application of cyclodextrins (CDS) for remediation of perfluoroalkyl substances (PFASS)” (THE FLORIDA INTERNATIONAL UNIVERSITY BOARD OF TRUSTEES, priority 2017, dated 2021)
# Legend:
# Assay type in all cases: binding
# [1] = 19F NMR association constants of β-CD:legacy PFAS complexes; details: for K1:1 association constant: 1:1 β-CD:PFAS complex; for K1:1 association constant / K2:1 association constant: aqueous media, room temperature; for K2:1 association constant: 2:1 β-CD:PFAS complex; for Legacy PFAS Kassoc (1:1): 1:1 (unmarked value taken as 1:1)
# Experimental: A detailed comprehensive Nuclear Magnetic Resonance (NMR) spectral study of the complexation of PFASs to β-CD was conducted, Weiss-Errico and O'Shea, J. Hazardous Mat. 2017 329, 57-65, with highlights herein. […] Competition studies with adamantane-carboxylic acid and phenol confirmed the persistence of the β-CD:PFAS complex. The aqueous solution pH, ionic strength, and the presence of humic acid have only a modest influence on the β-CD:PFAS complexes. Table 2 gives the association constants for β-CD complexes with a sample of the PFASs studied, including perfluoroheptanoic acid (PFHpA), perfluorooctanoic acid (PFOA), perfluorononanoic acid (PFNA), perfluorooctane sulfonate (PFOS), and perfluorooctanesulfonamide (PFOSA).
# [2] = 19F NMR titration, average association constants of PFECAs with γ-CD; set-up: key: *: no significant association; details: 50% D2O/50% H2O, pH 7; averaged over individual fluorines
# Experimental: (§1) ^19F NMR spectroscopy was performed with a 400 MHz Bruker instrument with a quad probe (operating at 376.498 MHz for 19F). Hexafluorobenzene was used as the internal standard with a chemical shift of −164.9 ppm. For the titration experiments, the chemical shift of each peak was recorded, and the 1:1 and 2:1 association constants were calculated in GraphPad Prism and Mathworks Matlab by Ramos Cabrer et al.'s, Langmuir 1999, 15, 5489-5495 method.
# (§2) The ^19F NMR spectrum of each PFECA was monitored as a function of CD concentration. The individual CD:PFECA association constants were determined via nonlinear least-squares regression analysis of the change in observed chemical shift. The association constants determined for individual fluorines were then averaged to find the average association constant for each PFECA with each CD.
# [3] = 19F NMR titration, average association constants of PFECAs with α-CD; set-up: key: *: no significant association; details: 50% D2O/50% H2O, pH 7; averaged over individual fluorines
# Experimental: as §1, §2
# [4] = 19F NMR titration, average association constants of PFECAs with β-CD; details: for association constant with β-CD: 1:1 β-CD:PFECA; for Average association constant with β-CD (1:1): 1:1 β-CD:PFECA (unmarked values are 1:1); for Average association constant with β-CD (1:1) / Average association constant with β-CD (2:1): pH 7; for Decrease (1:1): decrease of 1:1 β-CD association constant versus legacy PFAS of the same chain length; for Emerging PFAS Kassoc (1:1): 1:1 (unmarked values taken as 1:1); for Average association constant with β-CD (2:1): 2:1 β-CD:PFECA
# Experimental: as §1, §2
# [5] = estimated based on association constants from PFOA and PFNA
Structure (SMILES),Average association constant with γ-CD [2],Average association constant with α-CD [3],Average association constant with β-CD (1:1) [4],Decrease (1:1) [4],Emerging PFAS Kassoc (1:1) ([4]; β-CD:PFECA),other results
"O=C(O)C(F)(F)C(F)(F)C(F)(F)C(F)(F)C(F)(F)C(F)(F)C(F)(F)C(F)(F)C(F)(F)F [PFDA, perfluorodecanoic acid]",,,,,,"Legacy PFAS Kassoc (1:1), estimated [1, 5]: ~10^5 (1:1) M^−1; Legacy PFAS Kassoc (2:1), estimated [1, 5]: ~10^3 (2:1) M^−1"
"O=C(O)C(F)(F)C(F)(F)C(F)(F)OC(F)(C(F)(F)F)C(F)(F)F [PFDMMOBA, perfluoro(5-oxa-6-dimethylhexanoic) acid]",6.85 +/− 1.82 × 10^2 M^−1,*,2.66 +/− 0.61 × 10^4 M^−1,~10,2.66 +/− 0.61 × 10^4 M^−1,"association constant with β-CD [4]: 26600 M⁻¹; stronger complexation with β-CD than PFPrOPrA ([4]; ratio of β-CD association constants, PFDMMOBA versus PFPrOPrA): ~40 ×"
"O=C(O)C(F)(F)C(F)(F)C(F)(F)C(F)(F)C(F)(F)C(F)(F)F [PFHpA, perfluoroheptanoic acid]",,,,,,"K1:1 association constant [1]: 4.30 ± 0.85 × 10^5 M^−1; K2:1 association constant [1]: 2.30 ± 0.27 × 10^3 M^−1; Legacy PFAS Kassoc (1:1) ([1]; β-CD:legacy PFAS): 4.30 +/− 0.85 x 10^5 (1:1) M^−1; Legacy PFAS Kassoc (2:1) ([1]; β-CD:legacy PFAS, 2:1): 2.30 +/− 0.27 × 10^3 (2:1) M^−1"
"O=C(O)C(F)(F)C(F)(F)OC(F)(F)F [PFMOBA, perfluoro(4-oxapentanoic) acid]",*,3.37 +/− 1.40 × 10^1 M^−1,1.48 +/− 0.36 × 10^3 M^−1,~10,1.48 +/− 0.36 × 10^3 M^−1,association constant with β-CD [4]: 1480 M⁻¹
"O=C(O)C(F)(F)OC(F)(F)F [PFMOPrA, Perfluoro(3-oxabutanoic) acid]",*,2.60 +/− 1.14 × 10^1 M^−1,1.54 +/− 0.52 × 10^2 M^−1,<10,1.54 +/− 0.52 × 10^2 M^−1,
"O=C(O)C(F)(F)C(F)(F)C(F)(F)C(F)(F)C(F)(F)C(F)(F)C(F)(F)C(F)(F)F [PFNA, perfluorononanoic acid]",,,,,,K1:1 association constant [1]: 3.37 ± 0.35 × 10^5 M^−1; K2:1 association constant [1]: 7.80 ± 0.66 × 10^3 M^−1
"O=C(O)C(F)(F)OC(F)(F)C(F)(F)OC(F)(F)C(F)(F)C(F)(F)C(F)(F)F [PFO2DA, perfluoro(3,6-dioxadecanoic) acid]",1.39 +/− 0.38 × 10^3 M^−1,*,1.38 +/− 0.40 × 10^4 M^−1,~10,1.38 +/− 0.40 × 10^4 (1:1) M^−1,Average association constant with β-CD (2:1) [4]: 7.72 +/− 2.43 × 10^3 M^−1
"O=C(O)C(F)(F)OC(F)(F)C(F)(F)OC(F)(F)F [PFO2HpA, perfluoro(3,6-dioxheptanoic) acid]",8.43 +/− 3.24 × 10^1 M^−1,5.34 +/− 0.48 × 10^1 M^−1,4.74 +/− 2.04 × 10^2 M^−1,~1000,4.74 +/− 2.04 × 10^2 (1:1) M^−1,"Average association constant with β-CD (2:1) [4]: 3.87 +/− 1.40 × 10^2 M^−1; Emerging PFAS Kassoc (2:1) ([4]; β-CD:PFECA, 2:1): 3.87 +/− 1.40 × 10^2 (2:1) M^−1"
"O=C(O)C(F)(F)OC(F)(F)C(F)(F)OC(F)(F)C(F)(F)OC(F)(F)F [PFO3DA, perfluoro(3,6,9-trioxadecanoic) acid]",7.60 +/− 2.10 × 10^2 M^−1,9.28 +/− 2.80 × 10^1 M^−1,3.03 +/− 1.09 × 10^3 M^−1,~100,3.03 +/− 1.09 × 10^3 (1:1) M^−1,Average association constant with β-CD (2:1) [4]: 4.12 +/− 1.08 × 10^3 M^−1
"O=C(O)C(F)(F)OC(F)(F)C(F)(F)OC(F)(F)C(F)(F)OC(F)(F)C(F)(F)C(F)(F)C(F)(F)F [PFO3TDA, perfluoro-(3,6,9-trioxatridecanoic) acid]",3.48 +/− 1.50 × 10^3 M^−1,*,5.93 +/− 1.20 × 10^5 M^−1,,,Average association constant with β-CD (2:1) [4]: 1.36 +/− 0.28 × 10^5 M^−1
"O=S(=O)(O)C(F)(F)C(F)(F)C(F)(F)C(F)(F)C(F)(F)C(F)(F)C(F)(F)C(F)(F)F [PFOS, perfluorooctane sulfonate]",,,,,,K1:1 association constant [1]: 6.96 ± 0.79 × 10^5 M^−1; K2:1 association constant [1]: 5.95 ± 1.70 × 10^4 M^−1
"NS(=O)(=O)C(F)(F)C(F)(F)C(F)(F)C(F)(F)C(F)(F)C(F)(F)C(F)(F)C(F)(F)F [PFOSA, perfluorooctanesulfonamide]",,,,,,K1:1 association constant [1]: 1.02 ± 0.16 × 10^5 M^−1; K2:1 association constant [1]: 2.70 ± 0.57 × 10^4 M^−1
"O=C(O)C(F)(F)C(F)(F)C(F)(F)C(F)(F)F [PFPA, perfluoropentanoic acid]",,,,,,Legacy PFAS Kassoc (1:1) ([1]; β-CD:legacy PFAS): 7.60 +/− 0.44 × 10^2 M^−1
"O=C(O)C(F)(OC(F)(F)C(F)(F)C(F)(F)F)C(F)(F)F (stereo not drawn) [PFPrOPrA, Perfluoro(2-methyl-3-oxahexanoic) acid]",*,2.36 +/− 1.10 × 10^2 M^−1,7.45 +/− 4.27 × 10^2 M^−1,~100,7.45 +/− 4.27 × 10^2 M^−1,association constant with β-CD [4]: 745 M⁻¹
